The source of these data is article PMC6364417, “Kinase inhibitor library screening identifies synergistic drug combinations effective in sensitive and resistant melanoma cells” (Journal of Experimental & Clinical Cancer Research : CR, 2019).

Assay in all cases: Kinase inhibitor library screening, PrestoBlue cell viability, 1 or 10 μM, 72 h
Data set [1] concerns A375-GP cells (Dabrafenib-resistant). Conditions: A375 GP, 72 h; for cell viability, A375 GP, 1μΜ / cell viability, A375 GP, 10μΜ: in %.
In data set [2] the test system is 501Mel cells (parental). The note with it: 501Mel Parental, 72 h; for cell viability, 501Mel Parental, 1μΜ / cell viability, 501Mel Parental, 10μΜ: in %. In outline: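 Each compound was applied to parental melanoma cells and to derivatives made resistant to Vemurafenib or Dabrafenib. After treatment, viability was read with PrestoBlue on a plate reader and expressed as % of untreated cells, with each line run at least in duplicate.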

Data set [3] concerns A375 cells (parental). The note with it: A375 Parental, 72 h.
In data set [4] the test system is IGR37-XP cells (Vemurafenib-resistant). The note with it: IGR37 XP, 72 h; for cell viability, IGR37 XP, 1μΜ: in %.
In data set [5] the test system is A375-XP cells (Vemurafenib-resistant). The note with it: A375 XP, 72 h.
The subject of data set [6] is IGR37-GP cells (Dabrafenib-resistant). The note with it: IGR37 GP, 72 h; for cell viability, IGR37 GP, 1μΜ: in %.
The subject of data set [7] is IGR37 cells (parental). The note with it: IGR37 Parental, 72 h; for cell viability, IGR37 Parental, 1μΜ / cell viability, IGR37 Parental, 10μΜ: in %.
The subject of data set [8] is 501Mel-XP cells (Vemurafenib-resistant). Conditions: 501Mel XP, 72 h; for cell viability, 501Mel XP, 1μΜ / cell viability, 501Mel XP, 10μΜ: in %.
Data set [9] deals with 501Mel-GP cells (Dabrafenib-resistant). Conditions: 501Mel GP, 72 h; for cell viability, 501Mel GP, 1μΜ / cell viability, 501Mel GP, 10μΜ: in %.

As for `C#Cc1cccc(Nc2ncnc3cc(OCCOC)c(OCCO)cc23)c1` [OSI-420 (Desmethyl Erlotinib)], the “cell viability, A375 GP, 1μΜ” value in data set [1] (1μΜ) is 96.7. Also, the “cell viability, A375 GP, 10μΜ” value in data set [1] (10μΜ) is 88.2. Further, in [2] (1μΜ), the “cell viability, 501Mel Parental, 1μΜ” value is on record as 109.3. Further, in data set [2] (10μΜ), the “cell viability, 501Mel Parental, 10μΜ” value came out at 100.2. Also, the “cell viability, A375 Parental, 10μΜ” value in [3] (10μΜ, in %) was 54.9. In addition, the cell viability, IGR37 XP, 10μΜ in data set [4] (10μΜ) came out at 45.3%. Moreover, the “cell viability, IGR37 XP, 1μΜ” value in data set [4] (1μΜ) came to 83.7. In addition, the “cell viability, A375 XP, 10μΜ” value in data set [5] (10μΜ, in %) is reported as 79.2. For the same compound, the cell viability, IGR37 GP, 10μΜ in [6] (10μΜ) is 81.4%. In addition, the “cell viability, IGR37 GP, 1μΜ” value in data set [6] (1μΜ) is 91.6. Besides, the “cell viability, IGR37 Parental, 1μΜ” value in [7] (1μΜ) is 108.5. In addition, in data set [7] (10μΜ), the “cell viability, IGR37 Parental, 10μΜ” value was 104.1. In data set [8] (1μΜ), the “cell viability, 501Mel XP, 1μΜ” value is recorded as 117.2. Also, the “cell viability, 501Mel XP, 10μΜ” value in data set [8] (10μΜ) came to 44.4. Further, the “cell viability, 501Mel GP, 1μΜ” value in [9] (1μΜ) is 106.0. In addition, the “cell viability, 501Mel GP, 10μΜ” value in [9] (10μΜ) stood at 79.2.
`Nc1ncnc2c1c(-c1cccc(OCc3ccccc3)c1)cn2C1CC(CN2CCCC2)C1` (stereo not shown) [NVP-ADW742]: in data set [1] (1μΜ), the “cell viability, A375 GP, 1μΜ” value was determined as 57.9. Moreover, the “cell viability, A375 GP, 10μΜ” value in [1] (10μΜ) amounted to 20.2. Besides, in data set [2] (1μΜ), the “cell viability, 501Mel Parental, 1μΜ” value worked out at 80.8. Besides, the “cell viability, 501Mel Parental, 10μΜ” value in [2] (10μΜ) came out at 0.529. For the same compound, the “cell viability, A375 Parental, 1μΜ” value in data set [3] (1μΜ, in %) was 89.6. The “cell viability, A375 Parental, 10μΜ” value in data set [3] (10μΜ, in %) is listed as 25.2. In data set [4] (10μΜ), the cell viability, IGR37 XP, 10μΜ turned out to be 1.2%. Besides, in [4] (1μΜ), the “cell viability, IGR37 XP, 1μΜ” value came to 78.5. The “cell viability, A375 XP, 1μΜ” value in data set [5] (1μΜ, in %) was 90.5. In addition, in data set [5] (10μΜ, in %), the “cell viability, A375 XP, 10μΜ” value was found to be 13.9. Besides, the cell viability, IGR37 GP, 10μΜ in data set [6] (10μΜ) amounted to 1.6%. For the same compound, the “cell viability, IGR37 GP, 1μΜ” value in [6] (1μΜ) was found to be 83.7. In data set [7] (1μΜ), the “cell viability, IGR37 Parental, 1μΜ” value was determined as 110.2. Further, in data set [7] (10μΜ), the “cell viability, IGR37 Parental, 10μΜ” value worked out at 0.537. Besides, the “cell viability, 501Mel XP, 1μΜ” value in data set [8] (1μΜ) is on record as 82.0. Besides, the “cell viability, 501Mel XP, 10μΜ” value in data set [8] (10μΜ) is on record as -0.346. In addition, the “cell viability, 501Mel GP, 1μΜ” value in data set [9] (1μΜ) was determined as 91.7. Besides, in data set [9] (10μΜ), the “cell viability, 501Mel GP, 10μΜ” value was -0.2.
On to `CCc1cnn2c(NCc3ccc[n+]([O-])c3)cc(N3CCCC[C@H]3CCO)nc12` [Dinaciclib (SCH727965)], for which the “cell viability (kinase inhibitor library screening)” value came out at 10.0% in data set [1] (1μΜ); 6.1% in [1] (10μΜ); 1.5% in data set [2] (1μΜ); 1.3% in data set [2] (10μΜ); 10.7% in data set [3] (10μΜ); 10.8% in [3] (1μΜ). In addition, the “cell viability (kinase inhibitor library screening)” value in data set [4] (1μΜ) stood at 3.1%; in [4] (10μΜ), 2.6%; in data set [5] (1μΜ) it was 11.5%; in [5] (10μΜ) it was 8.1%; in [6] (1μΜ), 4.4%; in [6] (10μΜ) it was 2.3%. Besides, the “cell viability (kinase inhibitor library screening)” value was 4.4% in data set [7] (1μΜ); 2.8% in [7] (10μΜ); 0.85% in data set [8] (1μΜ); 0.249% in [8] (10μΜ); 0.636% in data set [9] (1μΜ); 0.422% in data set [9] (10μΜ).
